Measurements from PubChem BioAssay (NCI).
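Each compound was tested at five concentrations against cells in 96-well plates for 48 hours. GI50: concentration for 50% inhibition of growth. TGI is the concentration that stops growth completely.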

Legend:
Test in all cases: growth of human tumour cells (NCI), 48 h
[1] = tested on: 786-0 renal
[2] = tested on: CCRF-CEM leukemia
[3] = tested on: A498 renal
[4] = tested on: SK-MEL-2 melanoma
[5] = tested on: UACC-257 melanoma
[6] = tested on: OVCAR-3 ovarian
[7] = tested on: U251 CNS
[8] = tested on: A549 NSCLC
[9] = tested on: SF-268 CNS
[10] = tested on: HCT-116 colon

Row | SMILES | GI50 [1] [µM] | TGI [1] [µM] | GI50 [2] [µM] | TGI [2] [µM] | GI50 [3] [µM] | TGI [3] [µM] | GI50 [4] [µM] | TGI [4] [µM] | GI50 [5] [µM] | TGI [5] [µM] | GI50 [6] [µM] | TGI [6] [µM] | GI50 [7] [µM] | TGI [7] [µM] | GI50 [8] [µM] | TGI [8] [µM] | GI50 [9] [µM] | TGI [9] [µM] | GI50 [10] [µM] | TGI [10] [µM]
1 | CC[C@]12C=CCN3CC[C@]4(C(=C(C(=O)OC)C1)Nc1cc(O)ccc14)[C@@H]32 | 15.7 | 40.8 | 25.3 | > 100 | 18.1 | 36.5 | 18.2 | 48.6 | 25.8 | 85.9 | 17.7 | 33.9 | 15.6 | 36.9 | 23.3 | 70.8 | 20.7 | 53.2 | 16.2 | 34.3
2 | O=C1OC(c2ccc(O)cc2)(c2ccc(O)cc2)c2cccc3cccc1c23 | 20.2 | 41.8 | 19.8 | 48.4 | 0.488 | 15.3 | 15.6 | 31.2 | 13.8 | 27.8 | 3.53 | 19.9 | 15.6 | 30.3 | 14.4 | 36.2 | 14.2 | 32.2 | 15.6 | 31.5
3 | CCOC(=O)c1[nH]c2c(c1C)-c1[nH]c(=O)c(S(=O)(=O)c3ccccc3)cc1SC2 | 46.3 | > 100 | 57.8 | > 100 | 1.68 | > 100 | 92.3 | > 100 | 67.1 | > 100 | 31.6 | > 100 | 31.1 | > 100 | 41.3 | > 100 | 34.5 | > 100 | 36.1 | > 100
4 | c1ccc(SCCCC(Sc2ccccc2)Sc2ccccc2)cc1 |  | > 100 |  | > 100 |  | > 100 |  | > 100 |  | > 100 |  | > 100 |  | > 100 |  | > 100 |  | > 100 |  | > 100
5 | COc1cc(C2C3=C(COC3=O)N(CCO)c3cc4c(cc32)CCC4)cc(OC)c1O (centres undefined) | 0.77 | 32 | 1.21 | > 32.5 | 0.131 | 5.64 | 0.0795 | 0.262 |  | > 32.5 | 0.0703 | 0.184 | 0.145 | > 32.5 | 0.499 | > 32.5 | 0.182 | > 32.5 | 0.138 | > 12.5
6 | NC(Cc1nn[nH]n1)C(=O)O (centres undefined) |  | > 100 |  | > 100 |  | > 100 |  | > 100 |  | > 100 |  | > 100 |  | > 100 |  | > 100 |  | > 100 |  | > 100
7 | Cc1c(C(C)C)cc(OCCO)cc1C(C)C |  | 63 |  | > 100 |  | 96.6 |  | 57.3 |  | > 100 |  | > 100 |  | > 100 |  | > 100 |  | > 100 |  | > 100
8 | CC1=CC2=C(C)C3(CC3)[C@@](C)(O)C(=O)C2=C1 |  | 0.517 |  | > 1 |  | 0.505 |  | 0.365 |  | 0.578 |  | 0.352 |  | 0.507 |  | > 0.975 |  | 0.456 |  | 0.357
9 | O=c1c2ccccc2nc(-c2ccccc2)n1NCC1(O)OCC(O)C(O)C1O (centres undefined) |  | > 100 |  | > 100 |  | > 100 |  | > 100 |  | > 100 |  | > 100 |  | > 100 |  | > 100 |  | > 100 |  | > 100
10 | O=C(N[C@@H]1CCCc2ccccc21)[C@H](CCC(=O)N1CCN(C2CCCCC2)CC1)N1C(=O)[C@@H](N2C(=O)OC[C@@H]2c2ccccc2)[C@H]1/C=C/c1ccccc1 | 1.86 | 4.07 | 2.83 | 8.87 | 1.76 | 5.3 | 1.92 | 4.29 | 1.49 | 3.36 | 1.72 | 3.81 | 2.2 | 5.42 | 2.6 | 14.8 | 1.3 | 3.04 | 1.8 | 4.68
11 | Oc1cccc(-c2nc3ccccc3s2)c1 |  | > 100 |  | > 100 |  | > 100 |  | > 100 |  | > 100 |  | > 100 |  | > 100 |  | > 100 |  | 68.7 |  | > 100
12 | O=C(O)c1cc(Cl)cc(NC(=O)C(Cl)Cl)c1Cl |  | > 100 |  | > 100 |  | > 100 |  | > 100 |  | > 100 |  | > 100 |  | > 100 |  | > 100 |  | > 100 |  | > 100
13 | COC(=O)c1c(C)oc2ccc(OC(C)=O)cc12 |  | > 100 |  | > 100 |  | > 100 |  | > 100 |  | > 100 |  | > 100 |  | > 100 |  | > 100 |  | > 100 |  | > 100
